Assay results published in ChEMBL document CHEMBL1221340, “Lanostane triterpenes from Ganoderma lucidum suppress the adipogenesis in 3T3-L1 cells through down-regulation of SREBP-1c” (Bioorg Med Chem Lett, 2010).
Active and inactive are the calls of the source. The calls are words filed in the database; no cut-off is given here.

What was measured:
3T3-L1 [1] = assay: Cytotoxicity against mouse 3T3L1 cells assessed as cell viability at up to 40 ug/ml; format: cell-based
3T3-L1 [2] = assay: Cytotoxicity against mouse 3T3L1 cells assessed as cell viability at up to 80 ug/ml; format: cell-based
3T3-L1 [3] = assay: Inhibition of adipogenesis in mouse 3T3L1 cells assessed as reduction of ACC mRNA expression at 80 ug/ml after 8 days by RT-PCR analysis; format: functional, cell-based
3T3-L1 [4] = assay: Inhibition of adipogenesis in mouse 3T3L1 cells assessed as reduction of SREBP1c mRNA expression at 80 ug/ml after 8 days by RT-PCR analysis relative to control; format: functional; conditions: 3T3-L1, 192 h
3T3-L1 [5] = assay: Inhibition of adipogenesis in mouse 3T3L1 cells assessed as reduction of SREBP1c protein expression at 80 ug/ml after 8 days by Western blotting analysis; format: functional, cell-based
3T3-L1 [6] = assay: Inhibition of adipogenesis in mouse 3T3L1 cells assessed as reduction of lipid accumulation at 40 ug/ml after 8 days relative to control; format: functional; conditions: 3T3-L1, 192 h
3T3-L1 [7] = assay: Inhibition of adipogenesis in mouse 3T3L1 cells assessed as reduction of FAS mRNA expression at 80 ug/ml after 8 days by RT-PCR analysis; format: functional, cell-based
3T3-L1 [8] = assay: Inhibition of adipogenesis in mouse 3T3L1 cells assessed as reduction of triglyceride accumulation at 80 ug/ml after 8 days; format: functional
3T3-L1 [9] = assay: Inhibition of adipogenesis in mouse 3T3L1 cells assessed as reduction of GPDH activity at 80 ug/ml after 8 days; format: functional

| Structure (SMILES) | Activity (3T3-L1 [1]) | inhibition (3T3-L1 [8]) | inhibition (3T3-L1 [9]) | other results |
| --- | --- | --- | --- | --- |
| COC(=O)[C@H](C)CC(=O)C[C@@H](C)[C@H]1C[C@H](O)[C@@]2(C)C3=C(C(=O)C[C@]12C)[C@@]1(C)CCC(=O)C(C)(C)[C@@H]1C[C@@H]3O | Non-toxic |  |  | Activity (3T3-L1 [2]): Non-toxic |
| CCCCOC(=O)C(C)CC(=O)C[C@@H](C)[C@H]1C[C@H](O)[C@@]2(C)C3=C(C(=O)C[C@]12C)[C@@]1(C)CCC(=O)C(C)(C)[C@@H]1C[C@@H]3O (stereo partly specified) [BUTYL GANODERATE A] | Non-toxic | Active | Active | inhibition (3T3-L1 [3]): Active; inhibition at 80 µg/mL (3T3-L1 [4]): 26%; inhibition (3T3-L1 [5]): Active; inhibition at 40 µg/mL (3T3-L1 [6]): 48%; Activity (3T3-L1 [2]): Non-toxic; inhibition (3T3-L1 [7]): Active |
| CCCCOC(=O)[C@H](C)CC(=O)C[C@@H](C)[C@H]1CC(=O)[C@@]2(C)C3=C(C(=O)C[C@]12C)[C@@]1(C)CC[C@H](O)C(C)(C)[C@@H]1C[C@@H]3O [BUTYL GANODERATE B] | Non-toxic | Active | Active | inhibition at 40 µg/mL (3T3-L1 [6]): 41% |
| CCCCOC(=O)CC[C@@H](C)[C@H]1CC(=O)[C@@]2(C)C3=C(C(=O)C[C@]12C)[C@@]1(C)CCC(=O)C(C)(C)[C@@H]1C[C@@H]3O [BUTYL LUCIDENATE A] | Non-toxic |  |  | inhibition at 40 µg/mL (3T3-L1 [6]): 45% |
| CCCCOC(=O)CC[C@@H](C)[C@H]1CC(=O)[C@@]2(C)C3=C(C(=O)C[C@]12C)[C@@]1(C)CC[C@H](O)C(C)(C)[C@@H]1C[C@@H]3O [BUTYL LUCIDENATE N] | Non-toxic | Active | Active | inhibition (3T3-L1 [3]): Active; inhibition at 80 µg/mL (3T3-L1 [4]): 38%; inhibition (3T3-L1 [5]): Active; inhibition at 40 µg/mL (3T3-L1 [6]): 56%; inhibition (3T3-L1 [7]): Active |
| C[C@H](CC(=O)C[C@@H](C)[C@H]1C[C@H](O)[C@@]2(C)C3=C(C(=O)C[C@]12C)[C@@]1(C)CCC(=O)C(C)(C)[C@@H]1C[C@@H]3O)C(=O)O [GANODERIC ACID A] | Non-toxic |  |  | Activity (3T3-L1 [2]): Non-toxic; inhibition at 80 µg/mL (3T3-L1 [8]; 3T3-L1, 192 h): 36%; inhibition at 80 µg/mL (3T3-L1 [9]; 3T3-L1, 192 h): 48% |
| CC(CC(=O)C[C@@H](C)[C@H]1CC(=O)[C@@]2(C)C3=C(C(=O)C[C@]12C)[C@@]1(C)CC[C@H](O)C(C)(C)[C@@H]1C[C@@H]3O)C(=O)O (stereo partly specified) [GANODERIC ACID B] | Non-toxic | Active | Active |  |
| C[C@H](CC(=O)C[C@@H](C)[C@H]1CC(=O)[C@@]2(C)C3=C(C(=O)C[C@]12C)[C@@]1(C)CCC(=O)C(C)(C)[C@@H]1CC3=O)C(=O)O [GANODERIC ACID E] | Non-toxic |  |  |  |
| CC(CC(=O)C[C@@H](C)[C@H]1C[C@H](O)[C@@]2(C)C3=C(C(=O)C[C@]12C)[C@@]1(C)CCC(=O)C(C)(C)[C@@H]1CC3)C(=O)O (stereo partly specified) [GANOLUCIDIC ACID A] | Non-toxic |  |  |  |
| C[C@H](CCC(=O)O)[C@H]1CC(=O)[C@@]2(C)C3=C(C(=O)C[C@]12C)[C@@]1(C)CC[C@H](O)C(C)(C)[C@@H]1C[C@@H]3O [LUCIDENIC ACID N] | Non-toxic | Active | Active |  |
| COC(=O)C(C)CC(=O)C[C@@H](C)[C@H]1CC(=O)[C@@]2(C)C3=C(C(=O)C[C@]12C)[C@@]1(C)CC[C@H](O)C(C)(C)[C@@H]1C[C@@H]3O (stereo partly specified) [METHYL GANODERATE B] | Non-toxic | Active | Active |  |
| COC(=O)C(C)CC(=O)C[C@@H](C)[C@H]1CC(=O)[C@@]2(C)C3=C(C(=O)C[C@]12C)[C@@]1(C)CCC(=O)C(C)(C)[C@@H]1C[C@@H]3O (stereo partly specified) [METHYL GANODERATE D] | Non-toxic |  |  |  |
| COC(=O)C(C)CC(=O)C[C@@H](C)[C@H]1CC(=O)[C@@]2(C)C3=C(C(=O)[C@@H](OC(C)=O)[C@]12C)[C@@]1(C)CC[C@H](O)C(C)(C)[C@@H]1CC3=O (stereo partly specified) [METHYL GANODERATE H] | Non-toxic |  |  |  |
| COC(=O)CC[C@@H](C)[C@H]1CC(=O)[C@@]2(C)C3=C(C(=O)C[C@]12C)[C@@]1(C)CCC(=O)C(C)(C)[C@@H]1C[C@@H]3O [METHYL LUCIDENATE A] | Non-toxic |  |  |  |
| COC(=O)CC[C@@H](C)[C@H]1CC(=O)[C@@]2(C)C3=C(C(=O)[C@@H](OC(C)=O)[C@]12C)[C@@]1(C)CC[C@H](O)C(C)(C)[C@@H]1CC3=O [METHYL LUCIDENATE E2] | Non-toxic |  |  |  |
| COC(=O)CC[C@@H](C)[C@H]1CC(=O)[C@@]2(C)C3=C(C(=O)C[C@]12C)[C@@]1(C)CCC(=O)C(C)(C)[C@@H]1CC3=O [METHYL LUCIDENATE F] | Non-toxic |  |  |  |
| COC(=O)CC[C@@H](C)[C@H]1CC(=O)[C@@]2(C)C3=C(C(=O)[C@@H](OC(C)=O)[C@]12C)[C@@]1(C)CC[C@H](O)C(C)(C)[C@@H]1C[C@@H]3O [METHYL LUCIDENATE P] | Non-toxic |  |  |  |
